Laboratory results from patent US9381143B2, “Use of substituted methoxyalkoxyphenylalkyl derivatives as preservative, preserving method, compounds and composition” (L'OREAL, priority 2010, dated 2016).

How the values were obtained:
Test in all cases: Challenge Test (artificial contamination) of cosmetic formula
Format in all cases: cell-based
[1] = test system: Candida albicans (Ca) ATCC 10231; details: 2% compound in cosmetic formula; inoculum approx. 10^6 CFU/g; 7 days at 22° C. in the dark; <200 CFU = sensitivity threshold
Description: (§1) The antimicrobial efficacy of a compound of formula (I) was evaluated by the Challenge Test or artificial contamination method.
(§2) The challenge test method consists of an artificial contamination of the sample with microbial strains from collection (bacteria, yeasts and moulds) and of an evaluation of the number of revivable microorganisms seven days after inoculation.
(§3) 5 pure cultures of microorganisms are used.
(§4) The gram−bacterial strains (Escherichia coli and Pseudomonas aeruginosa), the gram+bacterial strain (Enterococcus faecalis), the yeast strain (Candida albicans), and the mould strain (Aspergillus niger) are inoculated into subculturing medium, respectively the day before inoculation for the bacteria and the yeast, and 5 days before inoculation for the mould.
(§5) On the day of inoculation: • a suspension in tryptone salt diluent is prepared respectively for the bacteria and the yeast in such a way as to obtain, on a spectrophotometer, a suspension having an optical density between 35% and 45% of transmitted light at 544 nm; • for the mould, the spores are taken by washing the agar with 6 to 7 ml of harvesting solution and the suspension is recovered in a sterile flask or tube.
(§6) After having homogenized the microbial suspension, 0.2 ml of inoculum (the suspensions are used pure: between 1×10^8 and 3×10^8 CFU per ml) are placed in each pill bottle and the microbial suspension is completely homogenized in the 20 g of product (=cosmetic formula) using a spatula.
(§7) The amount of microorganisms present in the product corresponds, after homogenization, to a concentration of 10^6 microorganisms per gram of product, i.e. the inoculation at 1% of an inoculum containing 10^8 microorganisms per ml. After 7 or 14 days of contact time between the microorganisms and the product at 22° C.±2° C. and in the dark, ten-fold dilutions are carried out and the number of revivable microorganisms remaining in the product is counted.

[2] = test system: Aspergillus niger (An) ATCC 6275; details: 2% compound in cosmetic formula, inoculum approx. 10^6 CFU/g
Description: as §1, §2, §3, §4, §5, §6, §7

[3] = test system: Enterococcus faecalis (Ef) ATCC 33186; details: 2% compound in cosmetic formula, inoculum approx. 10^6 CFU/g
Description: as §1, §2, §3, §4, §5, §6, §7

[4] = test system: Pseudomonas aeruginosa (Pa) ATCC 19429; details: 2% compound in cosmetic formula; inoculum approx. 10^6 CFU/g; 7 days at 22° C. in the dark; <200 CFU = sensitivity threshold
Description: as §1, §2, §3, §4, §5, §6, §7

[5] = test system: Escherichia coli (Ec) ATCC 8739; details: 2% compound in cosmetic formula; inoculum approx. 10^6 CFU/g; 7 days at 22° C. in the dark; <200 CFU = sensitivity threshold
Description: as §1, §2, §3, §4, §5, §6, §7

Compound: COc1ccc(CCC(C)=O)cc1OC
- Number of CFU/gram of product at T = 7 days, C. albicans [1]: <200 CFU/gram of product
- Number of CFU/gram of product at T = 7 days, A. niger ([2]; 7 days at 22° C. in the dark): 1.4 · 10^6 CFU/gram of product
- Number of CFU/gram of product at T = 14 days, A. niger ([2]; 14 days at 22° C. in the dark): 3.6 · 10^5 CFU/gram of product
- Number of CFU/gram of product at T = 7 days, E. faecalis ([3]; 7 days at 22° C. in the dark): 7.3 · 10^5 CFU/gram of product
- Number of CFU/gram of product at T = 14 days, E. faecalis ([3]; 14 days at 22° C. in the dark): 3.3 · 10^8 CFU/gram of product
- Number of CFU/gram of product at T = 7 days, P. aeruginosa [4]: <200 CFU/gram of product
- Number of CFU/gram of product at T = 7 days, E. coli [5]: <200 CFU/gram of product
